Article PMC7525318, “Identification of Six Flavonoids as Novel Cellular Antioxidants and Their Structure-Activity Relationship” (Oxidative Medicine and Cellular Longevity, 2020)
Read-outs that look alike come from different tables or passages of the source.

Tests used:
[1] = DPPH radical scavenging activity; settings: 0.1 mM DPPH in methanol, 37°C, 30 min
Procedure: This assay was conducted as previously described by Wen et al. with some modifications. DPPH was freshly prepared in methanol at a concentration of 0.1 mM. The solution (20 μL) containing the tested compounds with different concentrations was added into the DPPH solution (180 μL) in the 96-well plates. […] The IC50 value was calculated on the scavenging activity against DPPH radical.

[2] = Oxygen radical antioxidant capacity (ORAC) assay; settings: Trolox equivalents; AAPH, fluorescein
Procedure: The ORAC assay was evaluated as previously described by Cao et al. with some modifications. 50 μL of samples or Trolox with different concentrations and the fluorescein solution was added to a 96-well microplate, which was incubated at 37°C for 10 min. […] The ORAC values were calculated by the regression equation between the Trolox concentration and the net area under the curve (expressed as μmol Trolox eq/μmol sample).

HepG2 cells [3] = test: Cellular antioxidant activity (CAA) assay; format: cell-based; settings: DCFH-DA 25 μM, ABAP 600 μM
Procedure: The CAA assay was tested as described previously. 6 × 10^4 cells/well of HepG2 cells were seeded at a 96-well microplate with 100 μL of growth medium/well. […] Then, the cells were washed with PBS and treated with 100 μL of 600 μM ABAP (dissolved in HBSS), and the 96-well microplate was immediately placed into an Infinite SpectraMax i3x Multi-Mode Detection plate-reader at 37°C. […]

[4] = tested on: superoxide dismutase (SOD); test: Intracellular SOD activity in ABAP-treated HepG2 cells; format: cell-based; settings: then ABAP
Procedure: (§1) HepG2 cells were seeded (1 × 10^6 cells/well) in six-well plates. After incubation for 24 h, the cells were pretreated with different concentration samples. Medium was washed by PBS and treated with 600 μM ABAP. The cells were collected and treated with cell lysis buffer (20 mM Tris at pH 7.5, 150 mM NaCl and 1% Triton X-100) at 4°C. The lysed cells were used to measure the intracellular activities of SOD, CAT, and GSH-Px by kits according to the manufacturer instructions (Wen 2015). Cells without sample and ABAP treatment were used as positive control (PC), while cells treated with ABAP but not sample were used as negative control (NC).

catalase (CAT) = test: Intracellular CAT activity in ABAP-treated HepG2 cells; format: cell-based; settings: for CAT activity of PC value: % of PC value; for increase of CAT activity: HepG2, pretreatment before ABAP
Procedure: as §1

[5] = tested on: glutathione peroxidase (GSH-Px); test: Intracellular GSH-Px activity in ABAP-treated HepG2 cells; format: cell-based; settings: for GSH-Px activity of PC value: % of PC value; for increase of GSH-Px activity: HepG2, pretreatment before ABAP
Procedure: as §1

HepG2 cells [6] = test: Cytotoxicity assay (CCK-8); format: cell-based
Procedure: (§2) The cytotoxicity and antiproliferative activity assays were performed by using the CCK-8 assay kit. Briefly, HepG2 cells were cultured at a density of 4 × 10^4 cells/well or 2.5 × 10^4 cells/well in a 96-well microplate with growth medium. After incubation at 37°C, the growth medium is treated with 100 μL of growth medium containing different concentrations of tested compounds for 24 h or 72 h. The wells having growth medium without the tested compound served as control. Then, the cells were incubated with 10 μL/well CCK-8 solutions for 2 h at 37°C. The absorbance values of each well were measured at 450 nm using a microplate reader (SpectraMax i3x, ForteBio Analytics Co., Ltd., USA). The cytotoxic activity and antiproliferative effects of the tested compound was calculated as(1) Cytotoxicity %=1−As/Ac×100%, (2) Cell proliferation %=As/Ac×100%, where As is the absorbance of the well with compound; Ac is the absorbance of control.

HepG2 cells [7] = test: Antiproliferative activity assay (CCK-8); format: cell-based
Procedure: as §2

[8] = HepG2, pretreated at a higher concentration
[9] = HepG2, pretreated with 5 μM, then ABAP
[10] = HepG2, pretreated with 10 μM, then ABAP
[11] = HepG2, pretreated with 15 μM, then ABAP
[12] = HepG2, first of three concentrations (not given)
[13] = HepG2, second of three concentrations (not given)
[14] = HepG2, third of three concentrations (not given)
[15] = HepG2, pretreated with 20 μM, then ABAP
[16] = HepG2, pretreated with 30 μM, then ABAP
[17] = HepG2, pretreated with 45 μM, then ABAP

Compound	IC50 [1] [µM]	EC50 (HepG2 cells [3]; Homo sapiens) [µM]	ORAC values [2] [μmol TE/μmol]	SOD activity compared to NC cells [4, 8]	increase of CAT activity (catalase (CAT))	increase of GSH-Px activity [5]	cytotoxicity (HepG2 cells [6]; range of 10-160 μM)	also measured
Rhamnetin [compound 2]	34 ± 0.61		4.72 ± 0.02	significant increase	dose-dependent manner	dose-dependent manner	no significant effects	EC50 (HepG2 cells [3]): 10.8 ± 0.34 µM; SOD activity compared to NC cells ([4]; HepG2, pretreated with 5 μM): insignificant increase; CAT activity of PC value (catalase (CAT); [9]): 56.58 ± 3.25%; CAT activity of PC value (catalase (CAT); [10]): 74.98 ± 4.25%; CAT activity of PC value (catalase (CAT); [11]): 83.10 ± 4.54%; GSH-Px activity of PC value [5, 9]: 65.09 ± 3.21%; GSH-Px activity of PC value [5, 10]: 71.88 ± 4.23%; GSH-Px activity of PC value [5, 11]: 81.24 ± 5.65%
O=c1c(O)c(-c2ccc(O)cc2)oc2c(O)c(O)cc(O)c12 [compound 8, Herbacetin]	> 200	27.1 ± 2.47	5.05 ± 0.05	significant increase	dose-dependent manner	dose-dependent manner	no significant effects	SOD activity compared to NC cells ([4]; HepG2, pretreated with 15 μM): insignificant increase; CAT activity of PC value (catalase (CAT); [12]): 50.86 ± 2.23%; CAT activity of PC value (catalase (CAT); [13]): 67.01 ± 5.32%; CAT activity of PC value (catalase (CAT); [14]): 80.86 ± 5.21%; GSH-Px activity of PC value [5, 12]: 54.02 ± 3.02%; GSH-Px activity of PC value [5, 13]: 63.46 ± 2.51%; GSH-Px activity of PC value [5, 14]: 82.02 ± 5.35%
COc1c(-c2ccc(O)c(O)c2)oc2cc(O)cc(O)c2c1=O [compound 5, 3-O-methylquercetin]	> 200	19.5 ± 1.48	4.71 ± 0.12	significant increase	dose-dependent manner	dose-dependent manner	no significant effects	SOD activity compared to NC cells ([4]; HepG2, pretreated with 15 μM): insignificant increase; CAT activity of PC value (catalase (CAT); [11]): 49.55 ± 3.21%; CAT activity of PC value (catalase (CAT); [16]): 69.34 ± 5.15%; CAT activity of PC value (catalase (CAT); [17]): 80.67 ± 7.13%; GSH-Px activity of PC value [5, 11]: 59.74 ± 3.23%; GSH-Px activity of PC value [5, 16]: 69.08 ± 4.27%; GSH-Px activity of PC value [5, 17]: 83.44 ± 4.18%; cytotoxicity revealed by the cell proliferative assay (HepG2 cells [7]): slightly cytotoxicity; IC50 (HepG2 cells [7]; Homo sapiens): 90.7 ± 2.45 µM; cytotoxicity revealed by the cell proliferative assay (HepG2 cells [7]; listed as 3-O-methylquercetin): low cytotoxicity
O=c1c(O)c(-c2ccc(O)cc2)oc2cc(OC3O[C@H](CO)[C@@H](O)[C@H](O)[C@H]3O)cc(O)c12 (stereo partly shown) [compound 13, Kaempferol-7-O-glucopyranoside]	> 200	57.8 ± 3.12		significant increase	dose-dependent manner	dose-dependent manner	no significant effects	SOD activity compared to NC cells ([4]; HepG2, pretreated with 20 μM): insignificant increase; cytotoxicity (HepG2 cells [6]; at higher concentration): slight cytotoxicity
COc1cc(-c2[o+]c3cc(O)cc(O)c3cc2O[C@@H]2O[C@H](CO)[C@@H](O)[C@H](O)[C@H]2O)cc(OC)c1O.[Cl-] [compound 56, Oenin chloride]	> 200		4.78 ± 0.15					EC50 (HepG2 cells [3]): > 200 µM

Now from value to compound, other results behind:

IC50 [1] [µM]	EC50 (HepG2 cells [3]; Homo sapiens) [µM]	Compound	ORAC values [2] [μmol TE/μmol]	SOD activity compared to NC cells [4, 8]	increase of CAT activity (catalase (CAT))	increase of GSH-Px activity [5]	cytotoxicity (HepG2 cells [6]; range of 10-160 μM)	also measured
> 200	139 ± 5.21	O=c1cc(-c2ccc(O)c(O)c2)oc2cc(O)c([C@@H]3O[C@H](CO)[C@@H](O)[C@H](O)[C@H]3O)c(O)c12 [compound 32, Isoorientin]		significant increase	dose-dependent manner	dose-dependent manner	no significant effects	SOD activity compared to NC cells ([4]; HepG2, pretreated with 40 μM): insignificant increase; CAT activity of PC value (catalase (CAT); [12]): 44.93 ± 2.23%; CAT activity of PC value (catalase (CAT); [13]): 52.68 ± 3.42%; CAT activity of PC value (catalase (CAT); [14]): 68.35 ± 3.72%; GSH-Px activity of PC value [5, 12]: 47.79 ± 3.28%; GSH-Px activity of PC value [5, 13]: 55.99 ± 3.57%; GSH-Px activity of PC value [5, 14]: 71.20 ± 4.28%
71.7	45.1 ± 2.12	O=c1c(O[C@@H]2O[C@@H](CO)[C@H](O)[C@H]2O)c(-c2ccc(O)c(O)c2)oc2cc(O)cc(O)c12 [compound 10, Avicularin]		significant increase	dose-dependent manner	dose-dependent manner	no significant effects	SOD activity compared to NC cells ([4]; HepG2, pretreated with 10 μM): insignificant increase; CAT activity of PC value (catalase (CAT); [10]): 51.90 ± 3.21%; CAT activity of PC value (catalase (CAT); [15]): 68.95 ± 4.22%; CAT activity of PC value (catalase (CAT); [16]): 81.82 ± 4.25%; GSH-Px activity of PC value [5, 10]: 54.37 ± 3.05%; GSH-Px activity of PC value [5, 15]: 68.21 ± 4.25%; GSH-Px activity of PC value [5, 16]: 81.82 ± 5.52%
> 200	> 200	O=C1c2c(O)cc(O)cc2O[C@H](c2ccc(O)cc2O)[C@H]1O [compound 40, Dihydromorin]	5.29 ± 0.05					
> 200	> 200	COc1ccc(-c2cc(=O)c3c(O)cc(O)cc3o2)cc1O [compound 36, Diosmetin]	5.02 ± 0.14					
> 200	> 200	COc1ccc(CCC(=O)c2c(O)cc(O[C@@H]3O[C@H](CO)[C@@H](O)[C@H](O)[C@H]3O[C@@H]3O[C@@H](C)[C@H](O)[C@@H](O)[C@H]3O)cc2O)cc1O [compound 47, Neohesperidin dihydrochalcone]	4.31 ± 0.01					
59.6 ± 3.12	> 200	O=C1c2c(O)cc(O)cc2OC(c2ccc(O)c(O)c2)C1O (stereo not shown) [compound 39, Taxifolin]	5.26 ± 0.04					
